Article PMC4709073, “Curiouser and Curiouser: The Macrocyclic Lactone, Abamectin, Is also a Potent Inhibitor of Pyrantel/Tribendimidine Nicotinic Acetylcholine Receptors of Gastro-Intestinal Worms” (PLoS ONE, 2016)

Target: T1, Ode-UNC-29:Ode-UNC-63:Ode-UNC-38 (Oesophagostomum dentatum, UniProt E5KIX9+V5J2B2+V5J336)
T1 construct: co-injected with Haemonchus contortus ancillary factors Hco-ric-3, Hco-unc-50, Hco-unc-74; clones from earlier work of the authors
T1 sequence (V5J2B2 21-497): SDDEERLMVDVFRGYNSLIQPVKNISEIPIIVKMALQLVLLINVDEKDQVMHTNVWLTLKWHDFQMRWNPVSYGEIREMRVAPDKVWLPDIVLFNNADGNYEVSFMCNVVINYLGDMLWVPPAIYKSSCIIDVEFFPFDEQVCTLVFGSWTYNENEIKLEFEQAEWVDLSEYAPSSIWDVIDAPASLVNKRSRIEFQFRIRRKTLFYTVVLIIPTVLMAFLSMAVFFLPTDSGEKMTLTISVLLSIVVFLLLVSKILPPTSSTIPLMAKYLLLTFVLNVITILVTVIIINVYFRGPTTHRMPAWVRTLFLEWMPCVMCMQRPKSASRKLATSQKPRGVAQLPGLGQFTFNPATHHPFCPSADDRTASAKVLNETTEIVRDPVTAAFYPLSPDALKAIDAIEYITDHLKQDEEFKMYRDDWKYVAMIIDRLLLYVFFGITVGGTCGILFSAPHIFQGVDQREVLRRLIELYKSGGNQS
T1 sequence (E5KIX9 22-507): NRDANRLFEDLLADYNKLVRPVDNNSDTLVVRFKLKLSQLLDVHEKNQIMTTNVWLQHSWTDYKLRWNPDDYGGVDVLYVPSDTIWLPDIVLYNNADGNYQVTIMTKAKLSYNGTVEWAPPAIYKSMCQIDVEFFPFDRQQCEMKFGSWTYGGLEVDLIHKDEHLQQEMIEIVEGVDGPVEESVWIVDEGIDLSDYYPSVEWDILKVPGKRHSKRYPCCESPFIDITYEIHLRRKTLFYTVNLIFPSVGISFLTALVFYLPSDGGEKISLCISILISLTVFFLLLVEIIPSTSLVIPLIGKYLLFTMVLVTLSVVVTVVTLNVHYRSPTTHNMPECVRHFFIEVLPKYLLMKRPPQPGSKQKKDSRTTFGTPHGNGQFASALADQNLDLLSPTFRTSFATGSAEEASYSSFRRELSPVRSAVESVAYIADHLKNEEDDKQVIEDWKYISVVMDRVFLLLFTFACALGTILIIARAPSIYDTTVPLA
T1 sequence (V5J336 21-507): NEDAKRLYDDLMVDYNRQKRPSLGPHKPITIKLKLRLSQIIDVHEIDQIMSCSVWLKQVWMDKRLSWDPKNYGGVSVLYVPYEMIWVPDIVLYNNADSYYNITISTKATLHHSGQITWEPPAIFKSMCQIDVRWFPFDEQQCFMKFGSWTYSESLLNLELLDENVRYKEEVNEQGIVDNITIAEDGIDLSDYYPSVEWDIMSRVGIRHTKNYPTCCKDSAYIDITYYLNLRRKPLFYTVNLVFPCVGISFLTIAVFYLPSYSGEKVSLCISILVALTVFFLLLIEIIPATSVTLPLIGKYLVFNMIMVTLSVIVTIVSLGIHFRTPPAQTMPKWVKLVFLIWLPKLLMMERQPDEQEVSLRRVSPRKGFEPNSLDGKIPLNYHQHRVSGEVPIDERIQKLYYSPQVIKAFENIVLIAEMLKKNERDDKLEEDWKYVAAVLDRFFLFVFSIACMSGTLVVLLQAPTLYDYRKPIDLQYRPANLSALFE
Test: two-electrode voltage clamp, Xenopus oocytes, agonist concentration-response, Hill fit
Type: cell-based

| SMILES | EC50 [µM] |
| --- | --- |
| CC(=O)OCC[N+](C)(C)C [acetylcholine] | 13 ± 1.6 |
| CN1CCCN=C1/C=C/c1cccs1 [pyrantel] | 0.4 |
